This passage reports IC50, melting point and GI50 results from patent US7276519B2, “Thieno[3,2-b]pyridine-6-carbonitriles and thieno[2,3-b]pyridine-5-carbonitriles as protein kinase inhibitors” (Wyeth, priority 2002, dated 2007).

The target in data set [1] is T1, Raf-1 (c-Raf) / GST-MEK1 (Raf and/or Mek kinase).
T1 construct: Sf9 insect cell lysate containing full length 6his-tagged recombinant human c-Raf; fused on or other part: 6His tag on c-Raf; GST on MEK1
Nature of the data set: Raf/Mek kinase cascade assay. The data set is classed as biochemical, human. As to conditions: Table 4; read-out: Raf/MEK enzyme IC50. How it is done:
Raf/Mek Kinase Cascade Assay
(Specific Activity: ˜200 U/ml). Human Non-active Mek-1-GST and human GST-MAP kinase recombinant proteins produced in E. coli).
Stock Solutions Raf/Mek Cascade Assay:
• 1. Assay Dilution Buffer (ADB): 20 mM MOPS, pH 7.2, 25 mM β-glycerol phosphate, 5 mM EGTA, 1 mM sodium orthovanadate, 1 mM dithiothreitol. • 2. Magnesium/ATP Cocktail: 500 μM cold ATP and 75 mM magnesium chloride in ADB. • 3. Active Kinase: Human Active c-Raf: Use at 0.4 U per assay point. • 4. Non-active GST-MEK1: Use at 0.1 μg per assay point. • 5. Non-active GST-p42 MAP Kinase: Use at 1.0 μg per assay point. Stock Solutions ELISA: • 1. TBST—Tris (50 mM, pH 7.5), NaCl (150 mM), Tween-20 (0.05%) • 2. Superblock (Pierce) • 3. Anti-GST Ab (Pharmacia) • 4. Anti-Phospho MAPK (Sigma) • 5. Anti-Mouse Ab/Europium conjugate (Wallac) Assay Procedure: First Stage: c-Raf Dependent Activation of GST-MEK and GST-MAPK • 1. Add […] of ADB per assay (i.e. per well of a 96 well plate) • 2. Add […] of 0.5 mM cold ATP and 75 mM magnesium chloride in ADB. • 3. Add 2 ml of c-Raf (0.4 U/assay), in conjunction with 1.6 ml non-active MEK1 ([…]). • 4. Add 4 ml of non-active GST-p42 MAP Kinase ([…]). • 5. Incubate for 60 minutes at 30° C. in a shaking incubator. • 6. Transfer this mixture to an anti-GST Ab coated 96 well plate (Nunc Immunosorb plates coated o/n with a-GST, then blocked with Pierce Superblock). • 7. Incubate for 60 minutes at 30° C. in a shaking incubator • 8. Wash 3× with TBST, add Anti-Phospho MAPK (Sigma) (1:3000) • 9. Incubate for 60 minutes at 30° C. in a shaking incubator • 10. Wash 3× with TBST, add Anti-Mouse Ab/Europium conjugate (Wallac) (1:500) • 11. Incubate for 60 minutes at 30° C. in a shaking incubator • 12. Wash 3× with TBST, Read plates in Wallac Victor model Plate Reader. • 13. Collect data analyze in Excel for single point and IC50 determinations.
Single point assay—% inhibition at 10 mg/ml (% Inhibition=1—cpd.treated sample/untreated control). IC50 determinations—done on compounds from single point assays with >80% inhibition. Typically, the Raf/Mek assay is run at compound concentrations from 10 μM to 1 nM in half log dilutions. (% inhibition is determined for each compound concentration). Multiple entries for a given compound indicate that it was tested multiple times. The results obtained measure Raf and/or Mek kinase inhibition, and for representative compounds of this invention are listed in Table 4.

The subject of a further data set is LoVo cells. As to the kind of experiment: Cell based screen for inhibitors of Raf and/or Mek kinase, LoVo. Details: species or system human. As to conditions: Table 4, four days incubation, SRB. How it is done:
(§1) Cell Based Screen for Inhibitors of Raf and/or Mek Kinase.
(§2) Cell Lines: Human tumor cell lines LoVo which are known to be growth inhibited by low nM concentrations of a reference standard inhibitor of Ras and human adenocarcinoma cell line CaCo-2, which is known to be growth resistant to the same reference compound.
(§3) Cell Media: RPMI 1640 with 10% Fetal Bovine Serum supplemented with L-glutamine and Pennicilin/Streptomycin. • Compounds: Supplied usually as a 10 mM stock in 100% DMSO. • Normal Saline: 150 mM NaCl • Trichloroacetic Acid (TCA): 50% (w/v) in water • Sulforhodamine B (SRB): 0.4% (w/v) in 1% Acetic Acid • Tris Base: 10 mM in water Methods
(§4) Cells are plated at 2000 cells per well for cell line LoVo, 1,750 cells for cell line BXPC3, 1,000 cells for cell line WM266–4 and 1500 cells for cell line CaCo-2 in 96 well plates. Cells are plated in media (200 μl) and allowed to adhere overnight at 37° C. At 24 hours post plating, compounds are added directly at a volume of 0.5 μl. For the qualitative screen (compounds screened at 25 μM) compound is added directly to cells. For the quantitative screen, compound is first diluted in DMSO to generate concentrations of compound or reference standard of: 1, 5, 10 and 25 μM. It is advisable to make the dilutions in an identical 96 well plate so that compounds can be added using a multichannel micropipettor set at 0.5 μl. The cells are then incubated for four days after which the media is removed using a 12 well manifold by first tipping the plate forward at a 45 degree angle and then inserting the manifold in an upright orientation to prevent the tips of the manifold from disturbing cells at the bottom of the plate. 200 μl of normal saline is then added to each well using an 8 well multichannel pipettor, followed by the careful addition of 50 μl of 50% TCA. The plates are then incubated for 2 hours at 4° C., after which the supernatant is removed using the same technique as above and the plated washed twice with 200 μl water. The plates are then air dried and 50 μl of SRB stock solution is carefully added so that the entire bottom of each well is covered. This again can be used using an 8 well multichannel pipettor. The SRB is incubated with fixed cells for 15 minutes at room temperature after which the SRB is removed with the manifold as described above and the plates washed twice with 350 μl of 1% acetic acid per well each time. The plates are then air dried after which the bound SRB is released from protein by the addition of 200 μl of Tris base. Resolubilizing the SRB is aided by placing the plates on a rotator for 15–30 minutes. The absorbance of each well is determined at 550 or 562 nm using a microtiter plate reader.
(§5) Each compound or dilution thereof is performed in triplicate. Outliers are identified by visual inspection of the data. Each plate should have a “0” control (vehicle only).
(§6) Quantitative Assay: A standard curve is constructed by plotting the concentration of compound against the average absorbance calculated at that concentration. A curve is plotted and the concentration at which the curve passes through the 50% the absorbance mark seen in the “0” control well is the IC50 calculated for that compound. Multiple entries for a given compound indicate that it was tested multiple times.

In the next data set the test system is BXPC3 cells. As to the kind of experiment: Cell based screen for inhibitors of Raf and/or Mek kinase, BXPC3. As to conditions: Homo sapiens, BXPC-3, 96 h; Table 4; four days incubation, SRB. How it is done:
as §1, §2, §3, §4, §5, §6

The subject of a further data set is WM266-4 cells. Nature of the data set: Cell based screen for inhibitors of Raf and/or Mek kinase, WM266-4. To be noted: Homo sapiens, WM 266-4, 96 h, Table 4; four days incubation, SRB. As to the method:
as §1, §2, §3, §4, §5, §6

The test system of data set [2] is Rat2 fibroblasts stably transformed with v-Src/Hu c-Src fusion gene. As to the kind of experiment: Anchorage independent Src-transformed fibroblast proliferation assay. The class given is cell-based, rat. As to the method:
Anchorage Independent Src-Transformed Fibroblast Proliferation Assay Rat2 fibroblasts stably transformed with a plasmid containing a CMV promotor controlled v-Src/Hu c-Src fusion gene in which the catalytic domain of human c-Src was inserted in place of the v-Src catalytic domain in the v-Src gene are used for the measurement of src dependent suspension growth. […] Multiple entries for a given compound indicate that it was tested multiple times.

The target of data set [3] is T2, Rat2 fibroblasts stably transformed with v-Src/Hu Lck fusion gene (Homo sapiens, UniProt P06239, cells depend on it, form not given).
T2 construct: Candidates are e.g. Schmidt-Ruppin A (P00524) or Prague C (P00526); The human Lck catalytic domain stands in place of the v-Src catalytic domain
Nature of the data set: Anchorage independent Lck-transformed fibroblast proliferation assay. To be noted: Table 3; read-out: Lck Cells IC50. The class given is cell-based, rat. Summed up: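 Rat2 fibroblasts expressing a CMV-driven v-Src/human Lck catalytic-domain fusion grown in suspension on ultra-low attachment plates, 10,000 cells/well. Compound added Day 2 as two-fold dilutions from 10 to 0.009 micromolar; MTS added Day 5, absorbance read at 490 nm. IC50 derived from blank-corrected % of no-compound control.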

Data set [4] deals with T3, Recombinant human Src enzyme (Homo sapiens, UniProt P12931).
T3 construct: purchased PanVera P3044
As to the kind of experiment: Src kinase assay (LANCE FRET). The class given is biochemical. As to conditions: Table 3; 100 μM ATP, biotinylated Cdk1 peptide substrate. How it is done: Recombinant human Src enzyme was obtained from PanVera (P3044). […] Homogeneous fluorescence resonance energy transfer kinase assays were performed using the europium/APC detection format (LANCE, Perkin Elmer). Src enzyme (10 ng) was mixed with biotinylated peptide (final concentration 2 μM), 50 mM Hepes (pH 7.5), 10 mM MgCl2, 20 μg/ml BSA, 0.001% Brij-35 (sigma), 100 μM ATP, 1% DMSO. The kinase reaction was incubated for 70 min at 37° C. The reaction was stopped with EDTA at a final concentration of 30 mM EDTA/25 mM Hepes (pH 7.5)/10 μg/ml BSA. The mixture was combined with Eu-labeled anti-phosphotyrosine antibody PT66 (Perkin Elmer, AD0068) and Streptavidin Surelight-APC (Perkin Elmer, CR130-100) in 50 mM Hepes (pH 7.5)/20 μg/ml BSA, and incubated for 30 min according to manufacturer's specifications. […] Multiple entries for a given compound indicate that it was tested multiple times.

[5] abbreviates: Rattus norvegicus, Rat2, read-out: Src Cells IC50 μM or % inhib at 10 μM (IC50 values), Table 3.
[6] abbreviates: Rattus norvegicus, Rat2, Table 3, read-out: Src Cells IC50 μM or % inhib at 10 μM (IC50 values).
The mark [7] stands for this setting: Table 3, read-out: Src Cells IC50 μM or % inhib at 10 μM (IC50 values).

Several values for one entry are separate records, joined by “and”; a condition that tells them apart may be missing. Equal values may be shown once. Read-outs that look alike come from different tables or passages of the source.

T2 sequence (P06239 whole entry, change not shown, the tested form may be a part): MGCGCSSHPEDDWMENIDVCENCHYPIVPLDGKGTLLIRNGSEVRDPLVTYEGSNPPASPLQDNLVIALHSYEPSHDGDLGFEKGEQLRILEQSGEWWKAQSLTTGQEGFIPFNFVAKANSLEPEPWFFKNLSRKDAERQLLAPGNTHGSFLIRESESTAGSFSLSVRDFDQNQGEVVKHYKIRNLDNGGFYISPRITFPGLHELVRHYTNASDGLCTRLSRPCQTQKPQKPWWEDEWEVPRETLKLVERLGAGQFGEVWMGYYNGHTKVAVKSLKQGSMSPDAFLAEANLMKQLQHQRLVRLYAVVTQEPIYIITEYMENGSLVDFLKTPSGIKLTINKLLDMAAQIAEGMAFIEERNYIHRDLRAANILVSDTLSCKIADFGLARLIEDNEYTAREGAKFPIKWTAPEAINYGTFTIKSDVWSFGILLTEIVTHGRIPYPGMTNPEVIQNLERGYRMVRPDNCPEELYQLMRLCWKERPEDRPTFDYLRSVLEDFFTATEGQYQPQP
T3 sequence (P12931 whole entry): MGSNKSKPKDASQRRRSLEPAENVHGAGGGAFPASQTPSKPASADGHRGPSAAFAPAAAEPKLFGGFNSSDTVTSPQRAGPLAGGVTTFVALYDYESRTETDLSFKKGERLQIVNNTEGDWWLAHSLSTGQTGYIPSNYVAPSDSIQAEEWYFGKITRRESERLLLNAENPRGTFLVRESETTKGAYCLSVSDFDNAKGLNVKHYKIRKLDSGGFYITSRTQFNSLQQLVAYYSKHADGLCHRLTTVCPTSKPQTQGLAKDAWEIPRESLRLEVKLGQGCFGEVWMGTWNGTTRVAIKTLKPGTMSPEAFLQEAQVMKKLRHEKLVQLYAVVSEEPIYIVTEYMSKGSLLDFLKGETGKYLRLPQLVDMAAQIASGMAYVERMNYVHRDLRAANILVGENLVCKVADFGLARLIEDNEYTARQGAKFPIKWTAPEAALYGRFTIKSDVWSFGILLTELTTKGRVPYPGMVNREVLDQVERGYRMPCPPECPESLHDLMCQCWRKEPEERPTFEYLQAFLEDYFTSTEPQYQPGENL

Usually melting point stands for the temperature, or range, at which the solid turns liquid. `CN1CCN(Cc2ccc(-c3cc4ncc(C#N)c(Nc5ccc(Sc6nccn6C)c(Cl)c5)c4s3)cc2)CC1` [Example 99, 7-({3-chloro-4-[(1-methyl-1H-imidazol-2-yl)thio]phenyl}amino)-2-{4-[(4-methylpiperazin-1-yl)methyl]phenyl}thieno[3,2-b]pyridine-6-carbonitrile] returned a melting point of 221 to 224 °C. The IC50 in data set [1] turned out to be 4.5 nM. Also, the IC50 in the data set on LoVo cells (Homo sapiens, LoVo, 96 h) was found to be 39 nM. Besides, the IC50 with BXPC3 cells worked out at 41 nM. In the data set with WM266-4 cells, this molecule had an IC50 of more than 1000 nM.

Take `Cn1ccnc1Sc1ccc(Nc2c(C#N)cnc3cc(C#CCCN4CCOCC4)sc23)cc1Cl` [Example 86]: the melting point lay in the range of 195 to 200 °C. The IC50 in data set [1] was 221 nM and 332 nM. Further, the IC50 in the data set with LoVo cells (Homo sapiens, LoVo, 96 h) was 94 nM. In the data set with LoVo cells, this molecule had an IC50 of 160 nM. The IC50 with BXPC3 cells is 350 nM. The IC50 in the data set with WM266-4 cells turned out to be 350 nM.

As to `CCN(CC)CC#Cc1cc2ncc(C#N)c(Nc3ccc(Sc4nccn4C)c(Cl)c3)c2s1` [Example 118, 7-({3-chloro-4-[(1-methyl-1H-imidazol-2-yl)thio]phenyl}amino)-2-[3-(diethylamino)prop-1-ynyl]thieno[3,2-b]pyridine-6-carbonitrile], the melting point was in the range of 190 to 194 °C. This molecule also showed an IC50 in the data set on LoVo cells (Homo sapiens, LoVo, 96 h) of 73 nM. Moreover, the IC50 in the data set on BXPC3 cells came out at 71 nM.

Consider `CCOc1cc(Nc2c(C#N)cnc3cc(-c4ccc(CN5CCN(C)CC5)cc4)sc23)c(Cl)cc1Cl` [Example 123, 7-[(2,4-dichloro-5-ethoxyphenyl)amino]-2-{4-[(4-methylpiperazin-1-yl)methyl]phenyl}thieno[3,2-b]pyridine-6-carbonitrile], for which the melting point was 227 to 229 °C. Further, the IC50 in data set [2] (setting [5]) was more than 10 µM. Further, in data set [3], the GI50 is 3230 nM and 4690 nM. The IC50 in data set [4] is 943 nM and 1020 nM.

On to `COc1cc(Nc2c(C#N)cnc3cc(-c4ccc(C(=O)N5CCN(C)CC5)cc4)sc23)c(Cl)cc1Cl` [Example 117, 7-[(2,4-dichloro-5-methoxyphenyl)amino]-2-{4-[(4-methylpiperazin-1-yl)carbonyl]phenyl}thieno[3,2-b]pyridine-6-carbonitrile], for which the melting point was 240 to 243 °C (dec.). Also, in data set [2] (setting [5]), the IC50 was 0.388 µM. For the same molecule, the IC50 in data set [2] (read-out: Src Cells IC50 μM or % inhib at 10 μM (IC50 values), Table 3) is 0.274 µM. The GI50 in data set [3] was 129 nM and 171 nM. Besides, in data set [4], the IC50 is 15 nM and 11 nM.

`COc1cc(Nc2c(C#N)cnc3c(-c4ccc(CN(C)C)cc4)csc23)c(Cl)cc1Cl` [Example 141, 7-[(2,4-Dichloro-5-methoxyphenyl)amino]-3-{4-[(dimethylamino)methyl]phenyl}thieno[3,2-b]pyridine-6-carbonitrile]: the melting point was 201 to 202 °C. Besides, the IC50 in data set [2] (setting [6]) amounted to 4.52 µM. In data set [2] (setting [7]), the IC50 is 4.11 µM. Also, the GI50 in data set [3] is 3180 nM and 4240 nM. The IC50 in data set [4] is 4350 nM and 5040 nM.

`COCCNCc1ccc(-c2cc3ncc(C#N)c(Nc4cc(OC)c(Cl)cc4Cl)c3s2)cc1` [Example 92, 7-[(2,4-dichloro-5-methoxyphenyl)amino]-2-(4-{[(2-methoxyethyl)amino]methyl}phenyl)thieno[3,2-b]pyridine-6-carbonitrile]: the melting point lay within 162 to 164 °C. Further, in data set [2] (setting [6]), the IC50 was 0.829 µM. Moreover, the IC50 in data set [2] (setting [7]) was determined as 0.486 µM. In data set [3], the GI50 is 145 nM and 103 nM. Also, the IC50 in data set [4] is 8.8 nM and 11 nM.
